Laboratory results published in patent US20230211362A1, “A METHOD OF COATING AN OCULAR PROSTHETIC DEVICE AND OTHER PROSTHETICS” (UEA Enterprises Limited, priority 2020, published 2023).
Counter-ions that a name gives are not always drawn.

Legend:
[1] = In vitro drug release tests of nanoelectrosprayed contact lenses in PBS 7.4 under sink conditions, HPLC (Example 4); assay type: physicochemical; conditions: zein film on contact lens (BIM1); 2 ml PBS 7.4, 35° C., 125 rpm; FIG. 32 bottom
Procedure: Glass vials containing 2 ml PBS 7.4 was incubated in a shaking incubator set at 35° C. with 125 rpm for 2 hours before in vitro experiments. All in vitro experiments were performed under sink conditions (i.e., the drug concentration within the in vitro dissolution medium was more than 10 times diluted in comparison to the saturated solubility of the drug in the medium). The nanoelectrosprayed lenses were placed into the vial and an aliquot of 1.5 ml was replaced with fresh PBS at regular intervals up to 24 hours (for KF the intervals were 0.5, 1, 3, 6, and 24 hours; for BIM the intervals were 0.25, 0.5, 0.75, 1, 2, 3, 4, 5, 6, and 24 hours). […] The total amount of ketotifen and bimatoprost sprayed on a contact lens was determined by the sum of the cumulative amount of the drug released during the in vitro study and the amount obtained from extraction.
The high-performance liquid chromatography system (Jasco, Japan) consists of a pump (PU-1580), an autosampler (AS-2055 Plus) and a 4-channel UV detector (UV-1570M). A Waters C18 column (250×4.6 mm i.d.; 5 μm particle size) was used under ambient conditions. The mobile phase of ketotifen fumarate and bimatoprost was prepared according to a method adopted from the literature. The mobile phase for ketotifen comprised methanol and 0.2% triethylamine (v/v) (80:20), running with 1 ml/min flow rate. […]

[2] = cited from earlier work

bimatoprost release after 6 hours [1]	bimatoprost released in the first 30 minutes [1]	Compound	Log P [2]	pKa (acid) [2]	solubility in aqueous solutions ([2]; slightly soluble in aqueous solutions)
98%	51%	CCNC(=O)CCC/C=C\C[C@@H]1[C@@H](/C=C/[C@@H](O)CCc2ccccc2)[C@H](O)C[C@@H]1O [bimatoprost]			
		CN1CCC(=C2c3ccccc3CC(=O)c3sccc32)CC1 [Ketotifen fumarate]	3.4	12.3	7.87 µg/mL
